Data on 39 compounds can be found in US7989469B2, “Certain chemical entities, compositions, and methods” (Cytokinetics, Incorporated, priority 2008, dated 2011).

For the first experiment, the system named is rabbit skeletal muscle myofibril preparations (approximately 90% fast fibers). In words: Activation of fast skeletal muscle fibers: enzymatic activity of myofibril preparations (PUMA assay system). Type of experiment: biochemical. More on the design: unit not given here. The following applies: detergent treated myofibrils at pCa25%, 500 μM ATP; cells marked †: Mean value. The source says:
Fast fiber activators were identified by measuring the enzymatic activity of muscle myofibril preparations using the proprietary PUMA™ (see, e.g., U.S. Pat. Nos. 6,410,254, 6,743,599, 7,202,051, and 7,378,254) assay system. Myofibril preparations consisted of rabbit skeletal muscle (approximately 90% fast fibers) that had been treated with a detergen (triton X-100) to remove cellular membranes and then homogenized. This preparation retained all of the sarcomeric components in a native conformation and the enzymatic activity was still regulated by calcium. Compounds were tested using a myofibril suspension and a level of calcium sufficient to increase enzymatic activity of the myofibrils to 25% of their maximal rate (termed pCa25%). Enzymatic activity was tracked via a kinetic assay with a UV absorption readout. Hits were identified as compounds that increased the rate of enzymatic activity by greater than 40% at 40 μM. Myofibril preparations are calcium regulated and were screened at a level of calcium sufficient to produce a 25% increase in enzymatic rate. Detergent treated myofibrils were incubated with 500 μM ATP and 40 μM compound and a kinetic read of UV absorbance performed. Data was normalized to control wells.
As to “7-(3,4-difluorophenyl)-6-chloro-1-(ethylpropyl)imidazo[4,5-b]pyridin-2-ol”, the “AC1.4 Median” value is on record as 0.106†.

`CC[C@@H](CO)n1c(O)nc2ncc(Cl)c(-c3ccc(F)cc3)c21` [1-(1S)-1-ethyl-2-hydroxyethyl)-6-chloro-7-(4-fluorophenyl)imidazo[4,5-b]pyridin-2-ol]: the “AC1.4 Median” value is listed as 0.363†.

As for `CC[C@H](n1c(O)nc2ncc(Cl)c(-c3ccc(F)cc3)c21)C(C)(C)O` [1-((1S)-1-ethyl-2-hydroxy-2-methylpropyl)-6-chloro-7-(4-fluorophenyl)imidazo[4,5-b]pyridin-2-ol], the “AC1.4 Median” value was 0.320†.

In the case of `CC[C@@H](CO)n1c(O)nc2ncc(Cl)c(-c3ccc(Cl)cc3)c21` [1-((1S)-1-ethyl-2-hydroxyethyl)-6-chloro-7-(4-chlorophenyl)imidazo[4,5-b]pyridin-2-ol], the “AC1.4 Median” value was 0.261†.

As for `CC[C@@H](CO)n1c(O)nc2ncc(Cl)c(-c3ccc(Cl)s3)c21` [1-((1S)-1-ethyl-2-hydroxyethyl)-6-chloro-7-(5-chloro(2-thienyl))imidazo[4,5-b]pyridin-2-ol], the “AC1.4 Median” value was 0.178†.

Regarding `CC[C@@H](CCO)n1c(O)nc2ncc(Cl)c(-c3ccc(F)cc3)c21` [1-((1S)-1-ethyl-3-hydroxypropyl)-6-chloro-7-(4-fluorophenyl)imidazo[4,5-b]pyridin-2-ol], the “AC1.4 Median” value was 0.475†.

Staying with this experiment, now noted: detergent treated myofibrils at pCa25%, 500 μM ATP; median value (no †).
For “6-chloro-7-(5-chloro(3-pyridyl))-1-(ethylpropyl)imidazo[4,5-b]pyridin-2-ol”, the “AC1.4 Median” value is recorded as 1.899.

For “6-chloro-7-(5-fluoro(2-pyridyl))-1-(methylethyl)imidazo[4,5-b]pyridin-2-ol”, the “AC1.4 Median” value was found to be 2.323.

Regarding “7-(1H-indazol-6-yl)-6-chloro-1-(ethylpropyl)imidazo[4,5-b]pyridin-2-ol”, the “AC1.4 Median” value turned out to be 4.216.

With `CC[C@@H](n1c(O)nc2ncc(Cl)c(-c3ccc(F)cc3)c21)C(C)(C)O` [1-((1R)-1-ethyl-2-hydroxy-2-methylpropyl)-6-chloro-7-(4-fluorophenyl)imidazo[4,5-b]pyridin-2-ol], the “AC1.4 Median” value is given as 0.537.

For `CC[C@@H](n1c(O)nc2ncc(Cl)c(-c3ccc(F)cn3)c21)C(C)(C)O` [1-((1R)-1-ethyl-2-hydroxy-2-methylpropyl)-6-chloro-7-(5-fluoro(2-pyridyl))imidazo[4,5-b]pyridin-2-ol], the “AC1.4 Median” value turned out to be 8.386.

Take `CC[C@H](CO)n1c(O)nc2ncc(Cl)c(-c3ccc(F)cc3)c21` [1-((1R)-1-ethyl-2-hydroxyethyl)-6-chloro-7-(4-fluorophenyl)imidazo[4,5-b]pyridin-2-ol]: the “AC1.4 Median” value is listed as 2.367.

Consider `CC[C@H](CO)n1c(O)nc2ncc(Cl)c(-c3ccc(F)cn3)c21` [1-((1R)-1-ethyl-2-hydroxyethyl)-6-chloro-7-(5-fluoro(2-pyridyl))imidazo[4,5-b]pyridin-2-ol], for which the “AC1.4 Median” value was found to be 7.658.

Take `CC[C@H](CO)n1c(O)nc2ncc(Cl)c(-c3ccc(F)c(F)c3)c21` [1-((1R)-1-ethyl-2-hydroxyethyl)-7-(3,4-difluorophenyl)-6-chloroimidazo[4,5-b]pyridin-2-ol]: the “AC1.4 Median” value is reported as 4.034.

In the case of `CC[C@H](CC(C)(C)O)n1c(O)nc2ncc(Cl)c(-c3ccc(F)cc3)c21` [1-((1R)-1-ethyl-3-hydroxy-3-methylbutyl)-6-chloro-7-(4-fluorophenyl)imidazo[4,5-b]pyridin-2-ol], the “AC1.4 Median” value stood at 2.9192.

Regarding `CC[C@H](CCO)n1c(O)nc2ncc(Cl)c(-c3ccc(F)cc3)c21` [1-((1R)-1-ethyl-3-hydroxypropyl)-6-chloro-7-(4-fluorophenyl)imidazo[4,5-b]pyridin-2-ol], the “AC1.4 Median” value was 2.547.

For the compound `CC[C@@H](C)n1c(O)nc2nccc(-n3cccn3)c21` [1-((1R)-1-methylpropyl)-7-pyrazolylimidazo[4,5-b]pyridin-2-ol], the “AC1.4 Median” value is on record as 18.6973.

On to `CC[C@H](CN)n1c(O)nc2ncc(Cl)c(-c3ccc(F)cc3)c21` [1-((1R)-2-amino-1-ethylethyl)-6-chloro-7-(4-fluorophenyl)imidazo[4,5-b]pyridin-2-ol], for which the “AC1.4 Median” value amounted to 46.969.

Regarding `C[C@H](CO)n1c(O)nc2ncc(Cl)c(-c3ccc(F)cc3)c21` [1-((1R)-2-hydroxy-isopropyl)-6-chloro-7-(4-fluorophenyl)imidazo[4,5-b]pyridin-2-ol], the “AC1.4 Median” value came out at 11.044.

Take `CC[C@H](n1c(O)nc2ncc(Cl)c(-c3ccc(F)cn3)c21)C(C)(C)O` [1-((1S)-1-ethyl-2-hydroxy-2-methylpropyl)-6-chloro-7-(5-fluoro(2-pyridyl))imidazo[4,5-b]pyridin-2-ol]: the “AC1.4 Median” value came out at 6.420.

For the compound `CC[C@@H](CO)n1c(O)nc2ncc(-c3ccc(F)cc3)c(-c3ccc(F)cc3)c21` [1-((1S)-1-ethyl-2-hydroxyethyl)-6,7-bis(4-fluorophenyl)imidazo[4,5-b]pyridin-2-ol], the “AC1.4 Median” value is recorded as 17.720.

Consider `CC[C@@H](CO)n1c(O)nc2ncc(Cl)c(-c3cccs3)c21` [1-((1S)-1-ethyl-2-hydroxyethyl)-6-chloro-7-(2-thienyl)imidazo[4,5-b]pyridin-2-ol], for which the “AC1.4 Median” value was 1.349.

In the case of `CC[C@@H](CO)n1c(O)nc2ncc(Cl)c(-c3ccsc3)c21` [1-((1S)-1-ethyl-2-hydroxyethyl)-6-chloro-7-(3-thienyl)imidazo[4,5-b]pyridin-2-ol], the “AC1.4 Median” value is given as 0.827.

As to `CC[C@@H](CO)n1c(O)nc2ncc(Cl)c(-c3ccc(Cl)cc3)c21` [1-((1S)-1-ethyl-2-hydroxyethyl)-6-chloro-7-(4-chlorophenyl)imidazo[4,5-b]pyridin-2-ol], the “AC1.4 Median” value is 2.059.

`CC[C@@H](CO)n1c(O)nc2ncc(Cl)c(-c3ccc(OC)cc3)c21` [1-((1S)-1-ethyl-2-hydroxyethyl)-6-chloro-7-(4-methoxyphenyl)imidazo[4,5-b]pyridin-2-ol]: the “AC1.4 Median” value came out at 5.251.

In the case of `CC[C@@H](CO)n1c(O)nc2ncc(Cl)c(-c3ccc(C)cc3)c21` [1-((1S)-1-ethyl-2-hydroxyethyl)-6-chloro-7-(4-methylphenyl)imidazo[4,5-b]pyridin-2-ol], the “AC1.4 Median” value worked out at 2.194.

`CC[C@@H](CO)n1c(O)nc2ncc(Cl)c(-c3ccc(Cl)cn3)c21` [1-((1S)-1-ethyl-2-hydroxyethyl)-6-chloro-7-(5-chloro(2-pyridyl))imidazo[4,5-b]pyridin-2-ol]: the “AC1.4 Median” value is recorded as 9.592.

In the case of `CC[C@@H](CO)n1c(O)nc2ncc(Cl)c(-c3ccc(F)cn3)c21` [1-((1S)-1-ethyl-2-hydroxyethyl)-6-chloro-7-(5-fluoro(2-pyridyl))imidazo[4,5-b]pyridin-2-ol], the “AC1.4 Median” value is given as 7.549.

As to `CC[C@@H](CO)n1c(O)nc2ncc(Cl)c(-c3ccccc3)c21` [1-((1S)-1-ethyl-2-hydroxyethyl)-6-chloro-7-phenylimidazo[4,5-b]pyridin-2-ol], the “AC1.4 Median” value stood at 1.474.

Consider `CC[C@@H](CO)n1c(O)nc2ncc(Cl)c(-c3cnccn3)c21` [1-((1S)-1-ethyl-2-hydroxyethyl)-6-chloro-7-pyrazin-2-ylimidazo[4,5-b]pyridin-2-ol], for which the “AC1.4 Median” value was determined as 40.701.

As for `CC[C@@H](CO)n1c(O)nc2ncc(Cl)c(-n3cccn3)c21` [1-((1S)-1-ethyl-2-hydroxyethyl)-6-chloro-7-pyrazolylimidazo[4,5-b]pyridin-2-ol], the “AC1.4 Median” value is recorded as 7.2481.

Regarding `CC[C@@H](CO)n1c(O)nc2ncc(F)c(-c3ccc(F)cc3)c21` [1-((1S)-1-ethyl-2-hydroxyethyl)-6-fluoro-7-(4-fluorophenyl)imidazo[4,5-b]pyridin-2-ol], the “AC1.4 Median” value is on record as 4.204.

For `CC[C@@H](CO)n1c(O)nc2ncc(Cl)c(-c3ccc(F)c(F)c3)c21` [1-((1S)-1-ethyl-2-hydroxyethyl)-7-(3,4-difluorophenyl)-6-chloroimidazo[4,5-b]pyridin-2-ol], the “AC1.4 Median” value came out at 0.707.

With `CC[C@@H](CO)n1c(O)nc2ncc(F)c(-c3ccc(Cl)cc3)c21` [1-((1S)-1-ethyl-2-hydroxyethyl)-7-(4-chlorophenyl)-6-fluoroimidazo[4,5-b]pyridin-2-ol], the “AC1.4 Median” value came out at 2.643.

`CC[C@@H](CC(C)(C)O)n1c(O)nc2ncc(Cl)c(-c3ccc(F)cc3)c21` [1-((1S)-1-ethyl-3-hydroxy-3-methylbutyl)-6-chloro-7-(4-fluorophenyl)imidazo[4,5-b]pyridin-2-ol]: the “AC1.4 Median” value stood at 1.0092.

For `CC[C@H](C)n1c(O)nc2ncc(Cl)c(-n3cccn3)c21` [1-((1S)-1-methylpropyl)-6-chloro-7-pyrazolylimidazo[4,5-b]pyridin-2-ol], the “AC1.4 Median” value was 1.0174.

On to `CC[C@H](C)n1c(O)nc2ncc(Cl)cc21` [1-((1S)-1-methylpropyl)-6-chloroimidazo[4,5-b]pyridin-2-ol], for which the “AC1.4 Median” value was found to be 1.7291.

In the case of `CC[C@@H](CN)n1c(O)nc2ncc(Cl)c(-c3ccc(F)cc3)c21` [1-((1S)-2-amino-1-ethylethyl)-6-chloro-7-(4-fluorophenyl)imidazo[4,5-b]pyridin-2-ol], the “AC1.4 Median” value is 24.3174.

For `C[C@@H](CO)n1c(O)nc2ncc(Cl)c(-c3ccc(Cl)cc3)c21` [1-((1S)-2-hydroxy-isopropyl)-6-chloro-7-(4-chlorophenyl)imidazo[4,5-b]pyridin-2-ol], the “AC1.4 Median” value is on record as 1.260.

Turning to `C[C@@H](CO)n1c(O)nc2ncc(Cl)c(-c3ccc(F)cc3)c21` [1-((1S)-2-hydroxy-isopropyl)-6-chloro-7-(4-fluorophenyl)imidazo[4,5-b]pyridin-2-ol], the “AC1.4 Median” value amounted to 2.016.
